“And” between values parts separate entries of the source, which are not always exact repeats. Equal values may be shown once.
Legend:
[1] = Unidirectional brain extraction (Brain Uptake Index), single intracarotid injection; format: in vivo, Wistar rats; conditions: rat, 5 s after intracarotid injection, Ringer buffer as vehicle
Procedure: The unidirectional influx for [^14C]-42 was measured by the brain sampling single injection technique in adult male Wistar rats (˜220 g) under anesthesia (ketamine 130 mg/kg i.m., xylazine 1.3 mg/kg i.m.) (Oldendorf, W. H. “Measurement of brain uptake of radiolabeled substances using tritiated water internal standard” Brain Res., 1970, 24, 372-376). A bolus of ˜220 μL 0.001 M HEPES-buffered Ringer's solution pH 7.4, or rat plasma, was rapidly injected into the common carotid artery. The bolus contained [^14C]-42 (68 μg/mL) together with tritiated water (25 μCi/mL); the amount of ethanol in the injectate was 1% (v/v). The animals were decapitated 5 seconds after the injection. […] The percentage BUI (Brain Uptake Index) was calculated as […]
The brain extraction ratio E was calculated from E=BUI*0.62, where 0.62 represents the brain extraction ratio of tritiated water (Pardridge, W. M. et al. “Absence of albumin receptor on brain capillaries in vivo or in vitro” Am. J. Physiol, 1985, 249, E264-E267). In order to quantify a possible sequestration of [^14C]-42 by the brain microvasculature, the brain hemispheres of 3 rats were submitted to capillary depletion (Triguero, D, et al. “Capillary depletion method for quantifying the blood-brain barrier transcytosis of circulating peptides and plasma proteins” J. Neurochem, 1990, 54, 1882-1888). […]

[2] = Urinary excretion and metabolite patterns in blood and urine; format: in vivo, rat; conditions: for Urinary excretion of parent drug: underestimates (urine lost)
Procedure: Metabolite patters were determined in blood extracts and in urine. Blood was pooled from the 3 intravenously dosed rats of the pharmacokinetic study and from 3 additional rats treated in the same way. Urine was obtained from the animals of the pharmacokinetic study.
Between 0.3 and 0.6 mL of pooled diluted blood were spiked with 10-20 μg unlabeled compound 42-ch, extracted with 10 mL of methanol (HPLC grade, Rathburn) by sonication and centrifuged. The pellet was extracted once more in the same way. The two supernatants were combined and evaporated under reduced pressure at 35° C. on a rotary evaporator. The residue was transferred into a smaller vial by means of methanol and water, evaporated under a stream of nitrogen and taken up in 80 μl methanol and 320 μl water or in 120 μl methanol and 280 μl water by sonication. The suspension was centrifuged and a 300 μl aliquot of the supernatant was injected onto the HPLC column. The extraction yield of radioactivity was only 45±12% (mean ISD).
To urine samples, acetonitrile (˜5% v/v), TFA (to obtain a pH of ˜3) and unlabeled compound 42-ch (˜4 μg per volume analyzed) were added. The mixtures were centrifuged and 1-2 mL of supernatant were injected onto the HPLC column.
The chromatography was performed using HP 1090 liquid chromatograph (Hewlett-Packard). The radioactivity of the column eluate was measured by liquid scintillation counting either off-line or on-line using a Berthold LB 507A radioactivity monitor. The samples were chromatographed on a reversed-phase column (Nucleosil 100, C18AB, 250×4.6 mm, 5 μm particle size, Macherey-Nagel) protected by a corresponding 8×4 mm precolumn. The column temperature was 40° C. The components were eluted with a gradient of 0.02% v/v trifluoroacetic acid (TFA, Pierce) in water (mobile phase A, pH 2.8) versus acetonitrile (HPLC grade S, Rathburn; mobile phase B). The proportion of solvent B was kept at 5% up to 5 minutes after injection and was then increased in linear segments to 40% at 110 minutes and 100% at 120 minutes where it was kept for another 10 minutes. The total flow rate was 1 mL/min. The unlabeled parent drug, added as a retention time marker, was monitored by UV detection at 216 nm.

unidirectional brain extraction (BUI experiments), Ringer buffer [1]: 41%
Urinary excretion of parent drug ([2]; 0-48 hours after single intravenous 1 mg/kg [^14C]-42, mean of 3 animals): 1.64 % of dose
Urinary excretion of parent drug ([2]; 0-48 hours after single oral 10 mg/kg [^14C]-42, mean of 3 animals): 0.056 % of dose
drug-related material in blood ([2]; rat blood extracts after intravenous dosing): mainly of unchanged drug
Structure (SMILES): N#Cc1cc(S(=O)(=O)N2C(=O)N(CCCCCN)C(=O)C2Cc2c[nH]c3ccccc23)ccc1Oc1ccc(N)cc1 (stereo not drawn) [Compound 42]
Urinary excretion of parent drug ([2]; 0-48 hours after single intravenous 1 mg/kg [^14C]-42, individual animals, 1 mg/kg): 0.96 % of dose and 1.98 % of dose and 1.97 % of dose
Urinary excretion of parent drug ([2]; 0-48 hours after single oral 10 mg/kg [^14C]-42, individual animals, 10 mg/kg): 0.001 % of dose and 0.053 % of dose and 0.114 % of dose

From patent US20040019092A1, “Non-peptide somatostatin receptor ligands” (priority 2001, published 2004)
